Experimental data reported in US4870097A, “Pharmaceutical use of derivatives of tryptophan” (priority 1984, dated 1989).

Key:
[1] = tested on: analgesic activity of morphine; experiment: Tail Flick Test: increase in the analgesic effect of morphine; type: in vivo, rats; settings: for percentage variation in the latency of the pain sensation, 10' / percentage variation in the latency of the pain sensation, 20' / percentage variation in the latency of the pain sensation, 30' / percentage variation in the latency of the pain sensation, 45' / percentage variation in the latency of the pain sensation, 60' / percentage variation in the latency of the pain sensation, 90' / M(10'-90') average percentage variation: compound 10 mg/kg i.p. + morphine 2 mg/kg (row Morphine: alone); for percentage variation in the latency of the pain sensation, 10' / percentage variation in the latency of the pain sensation, 20' / percentage variation in the latency of the pain sensation, 30' / percentage variation in the latency of the pain sensation, 45' / percentage variation in the latency of the pain sensation, 60' / percentage variation in the latency of the pain sensation, 90': ± S.E.; for M(10'-90') average percentage variation: mean 10'-90'; for Potency ratio relative to morphine alone: rat, in vivo
Method: Increase in the analgesic effect of analgesic-narcotic drugs in rats in the Tail Flick Test
The method is that described by Harris et al. (J. Pharmacol. Exp. Ther. 143 (1964) 141-148).
Male rats are used which have a weight of about 150-200 g and which have not been fasting. A point is chosen on the tail and this is irradiated by a heat source (75° C.) and the time (in seconds) for which the animal remains without moving its tail is measured.
A maximum period of time under the heat source of 8 seconds is chosen after which the animal is, in any case, removed in order to avoid tissue damage. The measurement is effected before (controls) and after treatment with the drugs.
. The percentage variation is calculated for each individual animal by the following formula: [formula] The measurements are carried out 10, 20, 30, 45, 60 and 90 minutes after treatment with the analgesics.
The results obtained are given in Table 1 which records the groups treated and the doses administered, the
average percentage variations (calculated on groups of five animals) in […]

[2] = tested on: guinea pig gall bladder contracted with CCK-8; experiment: Anti-CCK activity on guinea pig gall bladders in vitro; type: biochemical; settings: CCK-8 10 ng/ml, concentration antagonising 50% of contracting effect
Method: A longitudinal strip of guinea pig gall bladder is placed in a bath of Krebs for isolated organs at a temperature of 32° C. and oxygenated continuously with an oxygen-CO2 mixture (95-5 V/V).
The […] contractions are detected by means of a force transducer and recorded.
The gall bladder is contracted with the use of a CCK-8 solution at a concentration of 10 ng/ml; the antagonistic activity of the compounds of the invention towards the contracting effect of the CCK is determined with the use of different concentrations, the ED50 value, that is the concentration of the compound in mcg/ml capable of antagonising 50% of the contracting effect of the CCK, being determined.
The results obtained are set out in the following table which gives the compounds tested and the ED50 values which are calculated by the method of regression on a test of at least three experiments for each compound studied.

SMILES | percentage variation in the latency of the pain sensation, 10' [1] | percentage variation in the latency of the pain sensation, 20' [1] | percentage variation in the latency of the pain sensation, 30' [1] | percentage variation in the latency of the pain sensation, 45' [1] | percentage variation in the latency of the pain sensation, 60' [1] | percentage variation in the latency of the pain sensation, 90' [1] | M(10'-90') average percentage variation [1] | Potency ratio relative to morphine alone [1] | Anti CCK-8 activity, ED50 [2]
Cc1ccc(COC(=O)N[C@@H](Cc2c[nH]c3ccccc23)C(=O)O)cc1Cl [Compound 10] | 51.5 ± 48.9% | 58.3 ± 16.5% | 66.0 ± 14.1% | 56.9 ± 17.0% | 56.2 ± 23.5% | 34.2 ± 8.4% | 55.5% | 1.86 | 88.5 µg/mL
N#Cc1ccc(COC(=O)N[C@@H](Cc2c[nH]c3ccccc23)C(=O)O)cc1 [Compound 11] | 53.4 ± 13.5% | 80.0 ± 13.0% | 90.4 ± 9.6% | 84.9 ± 15.1% | 55.6 ± 18.3% | 50.9 ± 20.7% | 72.9% | 2.45 | 34.3 µg/mL
O=C(N[C@@H](Cc1c[nH]c2ccccc12)C(=O)O)c1ccc(Cl)cc1 [Compound 12] | 42.2 ± 19.4% | 50.5 ± 17.0% | 69.7 ± 19.8% | 68.9 ± 13.4% | 32.7 ± 20.1% | 16.3 ± 7.4% | 49.1% | 1.65 | 206.0 µg/mL
O=C(N[C@@H](Cc1c[nH]c2ccccc12)C(=O)O)c1ccc(Br)cc1 [Compound 13] | 26.7 ± 5.6% | 72.6 ± 13.0% | 77.2 ± 10.0% | 86.2 ± 8.9% | 38.8 ± 11.3% | 12.6 ± 9.8% | 52.3% | 1.75 | 158.0 µg/mL
O=C(N[C@@H](Cc1c[nH]c2ccccc12)C(=O)O)c1ccc(F)cc1 [Compound 14] | 47.9 ± 21.0% | 90.2 ± 9.8% | 80.0 ± 12.5% | 67.7 ± 19.8% | 70.5 ± 18.1% | 61.5 ± 11.8% | 69.6% | 2.33 | 233.2 µg/mL
O=C(N[C@@H](Cc1c[nH]c2ccccc12)C(=O)O)c1ccc(I)cc1 [Compound 15] | 77.7 ± 13.8% | 81.7 ± 12.3% | 91.0 ± 9.0% | 89.0 ± 11.0% | 70.4 ± 17.2% | 60.3 ± 12.6% | 78.3% | 2.63 | IN (inactive up to 400 mcg/ml)
O=C(N[C@@H](Cc1c[nH]c2ccccc12)C(=O)O)c1cccc(Cl)c1 [Compound 16] | 25.2 ± 21.8% | 39.5 ± 26.1% | 37.7 ± 22.9% | 33.1 ± 19.9% | 25.9 ± 18.1% | 9.7 ± 11.9% | 28.5% | 0.96 | 197.5 µg/mL
O=C(N[C@@H](Cc1c[nH]c2ccccc12)C(=O)O)c1ccc(Cl)c(Cl)c1 [Compound 17] | 96.9 ± 4.1% | 100.0 ± 0.0% | 100.0 ± 0.0% | 50.3 ± 10.1% | 85.4 ± 11.5% | 29.6 ± 4.5% | 85.0% | 2.85 | 398.0 µg/mL
Cc1ccc(C(=O)N[C@@H](Cc2c[nH]c3ccccc23)C(=O)O)cc1 [Compound 18] | 7.8 ± 16.1% | 14.9 ± 17.1% | 42.1 ± 18.3% | 26.6 ± 20.5% | 32.7 ± 25.9% | 41.1 ± 24.3% | 27.5% | 0.93 | IN (inactive up to 400 mcg/ml)
CCc1ccc(C(=O)N[C@@H](Cc2c[nH]c3ccccc23)C(=O)O)cc1 [Compound 19] | 41.9 ± 12.8% | 43.9 ± 19.5% | 61.3 ± 18.1% | 49.4 ± 19.5% | 28.5 ± 17.0% | 14.4 ± 12.9% | 39.9% | 1.34 | 135.2 µg/mL
Cc1cccc(C(=O)N[C@@H](Cc2c[nH]c3ccccc23)C(=O)O)c1 [Compound 21] | 30.5 ± 19.7% | 89.0 ± 11.0% | 93.9 ± 6.1% | 85.9 ± 14.1% | 99.2 ± 0.8% | 56.3 ± 17.4% | 77.3% | 2.59 | IN (inactive up to 400 mcg/ml)
CCCc1ccc(C(=O)N[C@@H](Cc2c[nH]c3ccccc23)C(=O)O)cc1 [Compound 22] | 18.5 ± 5.3% | 39.3 ± 10.5% | 32.2 ± 7.9% | 37.1 ± 13.9% | 35.5 ± 10.0% | 24.5 ± 6.6% | 31.2% | 1.05 | 25.7 µg/mL
CCCCc1ccc(C(=O)N[C@@H](Cc2c[nH]c3ccccc23)C(=O)O)cc1 [Compound 23] | 47.9 ± 15.7% | 50.3 ± 10.1% | 56.9 ± 20.6% | 67.2 ± 20.9% | 41.1 ± 16.3% | 36.1 ± 18.0% | 49.9% | 1.67 | 74.0 µg/mL
CC(C)Cc1ccc(C(=O)N[C@@H](Cc2c[nH]c3ccccc23)C(=O)O)cc1 [Compound 24] | 66.9 ± 14.8% | 61.9 ± 17.5% | 84.4 ± 11.6% | 69.1 ± 14.9% | 65.2 ± 11.4% | 32.7 ± 19.9% | 63.4% | 2.13 | 327.7 µg/mL
